Tests used:
[1] = test system: Pseudomonas aeruginosa MB-2824; experiment: In vitro antibacterial spectrum profile, zone of inhibition; assay type: cell-based; details: MB2824, 33 μg/ml, read-out: Inhib. Zone Diam.
Sarcina lutea ATCC 9341 = experiment: as above; assay type: cell-based; details: Micrococcus luteus, ATCC9341; 33 μg/ml; read-out: Inhib. Zone Diam.
[2] = test system: Pseudomonas aeruginosa MB-979; experiment: as above; assay type: cell-based; details: MB979, 33 μg/ml, read-out: Inhib. Zone Diam.
[3] = test system: Vibrio percolans resistant to ceph. C MB-2566; experiment: as above; assay type: cell-based; details: Comamonas terrigena, read-out: Inhib. Zone Diam.
[4] = test system: Serratia marcescens ATCC 990; experiment: as above; assay type: cell-based; details: ATCC990, 33 μg/ml, read-out: Inhib. Zone Diam.
[5] = test system: Vibrio percolans ATCC 8461; experiment: Bioassay, agar plate disc-diffusion method
[6] = test system: Pseudomonas stutzeri ATCC 11607; experiment: In vitro antibacterial spectrum profile, zone of inhibition; assay type: cell-based; details: Stutzerimonas stutzeri, ATCC11607; 33 μg/ml; read-out: Inhib. Zone Diam.
[7] = test system: Staphlococcus aureus ATCC 6538 P; experiment: as above; assay type: cell-based; details: 33 μg/ml; read-out: Inhib. Zone Diam.
[8] = test system: Streptococcus faecium MB-2820; experiment: as above; assay type: cell-based; details: Enterococcus faecium, MB2820; 33 μg/ml; read-out: Inhib. Zone Diam.
[9] = test system: Vibrio percolans ATCC 8461 + 2 × 10^5 units/ml penicillinase; experiment: In vitro antibacterial spectrum profile, zone of inhibition, with penicillinase; assay type: cell-based; details: Comamonas terrigena, ATCC8461, 33 μg/ml, read-out: Inhib. Zone Diam.
[10] = test system: Escherichia coli ATCC 9637; experiment: In vitro antibacterial spectrum profile, zone of inhibition, synthetic medium; assay type: cell-based; details: ATCC9637, read-out: Inhib. Zone Diam.
[11] = test system: Aerobacter aerogenes MB-835; experiment: In vitro antibacterial spectrum profile, zone of inhibition; assay type: cell-based; details: Klebsiella aerogenes, MB835; 33 μg/ml; read-out: Inhib. Zone Diam.
[12] = test system: Bacillus subtilis ATCC 6633; experiment: as above; assay type: cell-based; details: ATCC6633, 33 μg/ml, read-out: Inhib. Zone Diam.
[13] = test system: Proteus vulgaris (episome) MB-2112; experiment: as above; assay type: cell-based; details: 33 μg/ml, read-out: Inhib. Zone Diam.
Electrophoresis = assay type: physicochemical; details: neutral pH
[14] = test system: Streptococcus agalactiae MB-2875; experiment: In vitro antibacterial spectrum profile, zone of inhibition; assay type: cell-based; details: MB2875, read-out: Inhib. Zone Diam.
Escherichia coli MB-1418 = experiment: as above; assay type: cell-based; details: MB1418, read-out: Inhib. Zone Diam.
[15] = test system: Staphylococcus aureus MB-698; experiment: as above; assay type: cell-based; details: MB698, 33 μg/ml, read-out: Inhib. Zone Diam.
[16] = test system: Alcaligenes faecalis ATCC 213; experiment: as above; assay type: cell-based; details: ATCC213, 33 μg/ml, read-out: Inhib. Zone Diam.
Procedure: (§1) The test to determine the antibiotic spectrum profile is carried out by application of a 0.015 ml. droplet on the surface of a 100×15 mm. petri plate containing 5 ml. of seeded nutrient agar and 0.2% yeast extract. The antibiotic 890A1 is tested at a level of 33 μg/ml. and the antibiotic 890A3 is tested at a level of 182 μg/ml.

Bacillus sp. MB-633 = experiment: as above; assay type: cell-based; details: SP.MB633, 33 μg/ml, read-out: Inhib. Zone Diam.
Procedure: as §1

[17] = test system: Corynebacterium pseudoidph. ATCC 9742; experiment: as above; assay type: cell-based; details: ATCC9742, 33 μg/ml, read-out: Inhib. Zone Diam.
Procedure: as §1

[18] = test system: Proteus vulgaris ATCC 21100; experiment: as above; assay type: cell-based; details: ATCC21100, 33 μg/ml, read-out: Inhib. Zone Diam.
Procedure: as §1

[19] = test system: Salmonella gallinarum MB-1287; experiment: as above; assay type: cell-based; details: Salmonella enterica, 33 μg/ml, read-out: Inhib. Zone Diam.
[20] = test system: Xanthomonas vesicatoria MB-815; experiment: as above; assay type: cell-based; details: MB815, 33 μg/ml, read-out: Inhib. Zone Diam.
[21] = test system: Proteus mirabilis MB-3126; experiment: as above; assay type: cell-based; details: MB3126, 33 μg/ml, read-out: Inhib. Zone Diam.
[22] = test system: Vibrio percolans ATCC 8461; experiment: as above; assay type: cell-based; details: Comamonas terrigena, ATCC8461, read-out: Inhib. Zone Diam.
[23] = test system: Brucella bronchiseptica ATCC 4617; experiment: microbe, parasite or virus in culture; assay type: cell-based; details: Bordetella bronchiseptica, ATCC4617, read-out: Inhib. Zone Diam.
[24] = test system: Erwinia atroseptica ATCC 4466; experiment: In vitro antibacterial spectrum profile, zone of inhibition; assay type: cell-based; details: Pectobacterium atrosepticum, ATCC4466; 33 μg/ml; read-out: Inhib. Zone Diam.
[25] = test system: gram-negative and gram-positive organisms; experiment: In vivo activity; parameters: species or system Female white Swiss mice; details: mouse
Procedure: (§2) In determining the in vivo activity, antibiotic 890A1 is dissolved in and diluted with 0.15M NaCl, 0.01M sodium phosphate, pH 7.0, to provide five fourfold concentrations of drug for testing. Female white Swiss mice, averaging about 21 g. in weight, were infected intraperitoneally with the test organism suspended in broth. The numbers of organisms injected were determined by standard plate-count techniques. At the time of infection and again 6 hours later, certain of the mice were treated intraperitoneally with the antibiotic. Five mice were used for each concentration of drug tested. An additional two mice, not infected, were treated with the antibiotic to determine whether the amount of agent injected was toxic. Controls of five mice for each of several dilutions of the infecting culture were included in each test in order to calculate the numbers of organisms that were lethal to 50% of the infected, untreated mice (LD50). This calculation was made using survival data of the seventh day after infection, at which time the amount of drug that should protect 50% of the infected mice (ED50) also was calculated.

[26] = test system: Streptococcus faecalis MB-753; experiment: In vitro antibacterial spectrum profile, zone of inhibition; assay type: cell-based; details: Enterococcus faecalis, MB753; 33 μg/ml; read-out: Inhib. Zone Diam.
[27] = test system: Klebsiella pneumoniae MB-1264; experiment: as above; assay type: cell-based; details: MB1264, read-out: Inhib. Zone Diam.
[28] = test system: Salmonella schottmuellari MB-2837; experiment: In vivo protection of intraperitoneally infected mice; parameters: species or system Female white Swiss mice; details: ip; at infection and 6 hours later; calculated on the projected purity of 890A1 at 5500 units/mg
Procedure: as §2
All animals receiving this challenge and not treated with antibiotic died within 48 hours of the infection.

Solubility in water = assay type: physicochemical; details: sodium salt
Proteus vulgaris MB-1012 = experiment: In vitro antibacterial spectrum profile, zone of inhibition; assay type: cell-based; details: MB1012, 33 μg/ml, read-out: Inhib. Zone Diam.
[29] = test system: Vibrio percolans (ATCC 8461); experiment: Assay procedure for determining "890 Assay Units" (disc-plate assay, cephaloridine standard); assay type: cell-based
Procedure: The conventional disc-plate assay procedure is employed and the discs are 1/2 inch in diameter. The routinely poured 10 ml./plate inoculated with Vibrio percolans (ATCC 8461) is used and the standard is cephaloridine. Four concentrations of cephaloridine constitute the standard -- 3.12, 6.25. 12.5 and 25 mcg per ml. with the 12.5 mcg per ml. as a reference solution. The zone diameters on a 5 ml. plate for the standard are as follows:
A unit is defined as the amount of antibiotic-producing a 25 mm. zone of inhibition on a 5 ml. plate. Therefore, in this assay a concentration of 12.5 mcg per ml. of cephaloridine is considered equivalent to 1 unit of 890A. Since the slope of the line for cephaloridine is 4.0 calculations of the potency of a sample are made using a slope of 4.0.

[30] = 1 unit/ml. = the concentration which produces a 25 mm zone of inhibition

CC(=O)NCCSC1=C(C(=O)O)N2C(=O)C(C(C)O)C2C1 (centres unmarked) [Antibiotic 890A1]
zone of inhibition at 33 µg/mL [1]: 0 mm | zone of inhibition at 33 µg/mL (Sarcina lutea ATCC 9341): 38 mm | zone of inhibition at 33 µg/mL [2]: 0 mm | zone of inhibition at 33 µg/mL [3]: 15 mm | zone of inhibition at 33 µg/mL [4]: 26 mm | activity of the solution tested in vivo [5, 30]: 908 Units/ml. | potency of 890A1 used in the in vivo test [5, 30]: 5.5 units per μg | antibiotic potency ([5]; 890A1 value defined as standard): 250 units per HAEA300 unit | zone of inhibition at 33 µg/mL [6]: 10 mm | zone of inhibition at 33 µg/mL [7]: 35 mm | zone of inhibition at 33 µg/mL [8]: 18 mm | zone of inhibition at 33 µg/mL [9]: 10 mm | zone of inhibition at 33 µg/mL [10]: 27 mm | zone of inhibition at 33 µg/mL [11]: 26 mm | zone of inhibition at 33 µg/mL [12]: 38 mm | zone of inhibition at 33 µg/mL [13]: 32 mm | movement on electrophoresis (Electrophoresis): acidic substance which moves toward the positive pole on electrophoresis at neutral pH | zone of inhibition at 33 µg/mL [14]: 36 mm | zone of inhibition at 33 µg/mL (Escherichia coli MB-1418): 27 mm | zone of inhibition at 33 µg/mL [15]: 28 mm | zone of inhibition at 33 µg/mL [16]: 27 mm | zone of inhibition at 33 µg/mL (Bacillus sp. MB-633): 40 mm | zone of inhibition at 33 µg/mL [17]: 34 mm | zone of inhibition at 33 µg/mL [18]: 34 mm | zone of inhibition at 33 µg/mL [19]: 33 mm | zone of inhibition at 33 µg/mL [20]: 26 mm | zone of inhibition at 33 µg/mL [21]: 23 mm | zone of inhibition at 33 µg/mL [22]: 34 mm | zone of inhibition at 33 µg/mL [23]: 22 mm | zone of inhibition at 33 µg/mL [24]: 20 mm | in vivo activity [25]: exhibits in vivo activity against gram-negative and gram-positive organisms | zone of inhibition at 33 µg/mL [26]: 17 mm | zone of inhibition at 33 µg/mL [27]: 27 mm | ED50 × 2 doses [28]: 3 µg | solubility in water (Solubility in water): very soluble in water | zone of inhibition at 33 µg/mL (Proteus vulgaris MB-1012): 21 mm

O=C(Cc1cccs1)N[C@@H]1C(=O)N2C(C(=O)[O-])=C(C[n+]3ccccc3)CS[C@H]12 [cephaloridine]
slope of the line [29]: 4.0 | zone of inhibition at 3.12 µg/mL ([29]; Comamonas terrigena, ATCC8461, 3.12 mcg/ml, 5 ml. plate, read-out: Zone Diameter): 16.8 mm | zone of inhibition at 6.25 µg/mL ([29]; Comamonas terrigena, ATCC8461, 6.25 mcg/ml, 5 ml. plate, read-out: Zone Diameter): 22.3 mm | zone of inhibition at 12.5 µg/mL ([29]; Comamonas terrigena, ATCC8461, 12.5 mcg/ml, 5 ml. plate, read-out: Zone Diameter): 25 mm | zone of inhibition at 25 µg/mL ([29]; Comamonas terrigena, ATCC8461, 25 mcg/ml, 5 ml. plate, read-out: Zone Diameter): 29.6 mm

From patent publication US4162324A, “Antibiotics 890A1 and 890A3” (Merck & Co., Inc., priority 1977, dated 1979)
